The values below come from patent publication US8618095B2 (Rigel Pharmaceuticals, Inc., priority 2010, dated 2013).

Structures are written as SMILES. Counter-ions that a name gives are not always drawn.

For the first assay, the system named is Human mast cells (CHMC). The assay can be described thus: LD Tryptase release assay in CHMC (mast cell activation induced by FcγR cross-linking). The assay is classed as cell-based. The conditions noted are these: Homo sapiens, Mast cell, anti-IgG stimulation, activity of tryptase released upon degranulation. The method, boiled down:
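Mast cells derived from CD38-negative progenitors were preincubated 1 h at 37 °C with compound in HEPES-buffered saline (pH 7.4, 0.1% BSA, compound diluted in buffer with 2% MeOH/1% DMSO). Cells were then stimulated 60 min with anti-human IgG (final 1 μg/mL). Released tryptase was measured on Z-Ala-Lys-Arg-AMC (30 min, room temperature, 355/460 nm) to give the IC50.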
Regarding `Cc1cc(Nc2ncc(F)c(Nc3ccc4c(n3)NC(=O)CO4)n2)cnc1N1CCOCC1` [Compound 11, N4-(3,4-dihydro-3-oxo-2H-pyrido[3,2-b][1,4]oxazin-6-yl)-5-fluoro-N2-[5-methyl-6-morpholinopyridin-3-yl]-2,4-pyrimidinediamine], the IC50 (in general, the concentration needed to halve the response being measured) is under 0.1 µM.

Consider `CC1(C)Oc2ccc(Nc3nc(Nc4cc(F)c(N5CCOCC5)c(F)c4)ncc3F)nc2NC1=O` [Compound 31, N4-(2,2-dimethyl-3,4-dihydro-3-oxo-2H-pyrido[3,2-b][1,4]oxazin-6-yl)-5-fluoro-N2-[3,5-difluoro-4-morpholinophenyl]-2,4-pyrimidinediamine], for which the IC50 was 1 to 100 µM.

Consider `CC1(C)Oc2ccc(Nc3nc(Nc4ccc(-c5cccnc5)nc4)ncc3F)nc2NC1=O` [Compound 75, N4-(2,2-dimethyl-3,4-dihydro-3-oxo-2H-pyrido[3,2-b][1,4]oxazin-6-yl)-5-fluoro-N2-[2,3′-bipyridin-5-yl]-2,4-pyrimidinediamine], for which the IC50 is 1 to 100 µM.

Consider `CC1(C)Oc2ccc(Nc3nc(Nc4ccc(N5CCC(N6CCOCC6)CC5)cc4)ncc3F)nc2NC1=O` [Compound 87, N4-(2,2-dimethyl-3,4-dihydro-3-oxo-2H-pyrido[3,2-b][1,4]oxazin-6-yl)-5-fluoro-N2-[4-(4-morpholinopiperidin-1-yl)phenyl]-2,4-pyrimidinediamine], for which the IC50 was 0.1 to 0.5 µM.

For the molecule `C[C@H]1CN(c2ccc(Nc3ncc(F)c(Nc4ccc5c(n4)NC(=O)CO5)n3)cn2)CCO1` [Compound 93, N4-(3,4-dihydro-3-oxo-2H-pyrido[3,2-b][1,4]oxazin-6-yl)-5-fluoro-N2-[6-((2S)-2-methylmorpholino)pyridin-3-yl]-2,4-pyrimidinediamine], the IC50 was in the range of 0.1 to 0.5 µM.

For `CC1(C)Oc2ccc(Nc3nc(Nc4ccc(N5C[C@@H]6C[C@H]5CO6)cc4)ncc3F)nc2NC1=O` [Compound 38, N4-(2,2-dimethyl-3,4-dihydro-3-oxo-2H-pyrido[3,2-b][1,4]oxazin-6-yl)-5-fluoro-N2-[4-((1S,4S)-5-oxa-2-aza-bicyclo[2.2.1]heptan-2-yl)phenyl]-2,4-pyrimidinediamine], the IC50 is under 0.1 µM.

As to `CCOC[C@H]1CN(c2ccc(Nc3ncc(F)c(Nc4ccc5c(n4)NC(=O)C(C)(C)O5)n3)cn2)CCO1` [Compound 103, N4-(2,2-dimethyl-3,4-dihydro-3-oxo-2H-pyrido[3,2-b][1,4]oxazin-6-yl)-N2-[6-(((2R)-2-ethoxymethyl)morpholino)pyridin-3-yl]-5-fluoro-2,4-pyrimidinediamine], the IC50 was in the range of 0.1 to 0.5 µM.

`O=C1COc2ccc(Nc3nc(Nc4ccc(N5CCOCC5=O)cc4)ncc3F)nc2N1` [Compound 39]: the IC50 was in the range of 0.1 to 0.5 µM.

For `CC1(C)Oc2ccc(Nc3nc(Nc4ccc(N5CC[C@@H](F)C5)nc4)ncc3F)nc2NC1=O` [Compound 136, (R)—N4-(2,2-dimethyl-3,4-dihydro-3-oxo-2H-pyrido[3,2-b][1,4]oxazin-6-yl)-5-fluoro-N2-[6-(3-fluoropyrrolidin-1-yl)pyrid-3-yl]-2,4-pyrimidinediamine], the IC50 was under 0.1 µM.

As to `C[C@H]1CN(c2ccc(Nc3ncc(F)c(Nc4ccc5c(n4)NC(=O)C(C)(C)O5)n3)cc2)CCO1` [Compound 79, N4-(2,2-dimethyl-3,4-dihydro-3-oxo-2H-pyrido[3,2-b][1,4]oxazin-6-yl)-5-fluoro-N2-1-2,4-pyrimidinediamine], the IC50 is 0.1 to 0.5 µM.

With `CC1(C)CN(c2ccc(Nc3ncc(F)c(Nc4ccc5c(n4)NC(=O)CO5)n3)cn2)CCO1` [Compound 9, N4-(3,4-dihydro-3-oxo-2H-pyrido[3,2-b][1,4]oxazin-6-yl)-5-fluoro-N2-[6-(2,2-dimethylmorpholino)pyridin-3-yl]-2,4-pyrimidinediamine], the concentration for half-maximal inhibition (IC50) was in the range of 0.1 to 0.5 µM.

On to `CC1(C)Oc2ccc(Nc3nc(Nc4ccc(N5CCC(C#N)CC5)cc4)ncc3F)nc2NC1=O` [Compound 154, N4-(2,2-dimethyl-3,4-dihydro-3-oxo-2H-pyrido[3,2-b][1,4]oxazin-6-yl)-5-fluoro-N2-[4-(4-cyanopiperidin-1-yl)phenyl]-2,4-pyrimidinediamine], for which the IC50 was in the range of 0.1 to 0.5 µM.

In the case of `CC1(C)Oc2ccc(Nc3nc(Nc4ccc5nc(-c6ccncc6)[nH]c5c4)ncc3F)nc2NC1=O` [Compound 132, N4-(2,2-dimethyl-3,4-dihydro-3-oxo-2H-pyrido[3,2-b][1,4]oxazin-6-yl)-5-fluoro-N2-[2-(pyridin-4-yl)-1H-benzo[d]imidazol-6-yl]-2,4-pyrimidinediamine], the IC50 was under 0.1 µM.

Consider `CC(C)OC1CCN(c2ccc(Nc3ncc(F)c(Nc4ccc5c(n4)NC(=O)C(C)(C)O5)n3)cc2)CC1` [Compound 86, N4-(2,2-dimethyl-3,4-dihydro-3-oxo-2H-pyrido[3,2-b][1,4]oxazin-6-yl)-5-fluoro-N2-[4-(4-isopropoxypiperidin-1-yl)phenyl]-2,4-pyrimidinediamine], for which the IC50 was 1 to 100 µM.

On to `CC1(C)CN(c2ncc(Nc3ncc(F)c(Nc4ccc5c(n4)NC(=O)C(C)(C)O5)n3)cc2F)CCO1` [Compound 15, N4-(2,2-dimethyl-3,4-dihydro-3-oxo-2H-pyrido[3,2-b][1,4]oxazin-6-yl)-5-fluoro-N2-[5-fluoro-6-(2,2-dimethylmorpholino)pyridin-3-yl]-2,4-pyrimidinediamine], for which the IC50 lay within 1 to 100 µM.

Consider `COc1cc(Nc2ncc(F)c(Nc3ccc4c(n3)NC(=O)CO4)n2)ccc1C1CCOCC1` [Compound 49, N4-(3,4-dihydro-3-oxo-2H-pyrido[3,2-b][1,4]oxazin-6-yl)-5-fluoro-N2-[-3-methoxy-4-tetrahydropyranophenyl]-2,4-pyrimidinediamine], for which the IC50 was under 0.1 µM.

Consider `CC1(C)Oc2ccc(Nc3nc(Nc4ccc(N5CCOCC5)c(F)c4)ncc3F)nc2NC1=O` [Compound 26, N4-(2,2-dimethyl-3,4-dihydro-3-oxo-2H-pyrido[3,2-b][1,4]oxazin-6-yl)-5-fluoro-N2-[3-fluoro-4-morpholinophenyl]-2,4-pyrimidinediamine], for which the IC50 is under 0.1 µM.

With `COC1CCN(c2ccc(Nc3ncc(F)c(Nc4ccc5c(n4)NC(=O)C(C)(C)O5)n3)cc2)CC1` [Compound 152, N4-(2,2-dimethyl-3,4-dihydro-3-oxo-2H-pyrido[3,2-b][1,4]oxazin-6-yl)-5-fluoro-N2-[4-(4-methoxypiperidin-1-yl)phenyl]-2,4-pyrimidinediamine], the IC50 was under 0.1 µM.

Regarding `CC1(C)Oc2ccc(Nc3nc(Nc4ccc(N5CCOCC5)c(OC(F)F)c4)ncc3F)nc2NC1=O` [Compound 25, N4-(2,2-dimethyl-3,4-dihydro-3-oxo-2H-pyrido[3,2-b][1,4]oxazin-6-yl)-5-fluoro-N2-[3-difluoromethoxy-4-morpholinophenyl]-2,4-pyrimidinediamine], the IC50 was in the range of 1 to 100 µM.

Regarding `CC1(C)Oc2ccc(Nc3nc(Nc4ccc(N5CCO[C@@H](CF)C5)nc4)ncc3F)nc2NC1=O` [Compound 145, N4-(2,2-dimethyl-3,4-dihydro-3-oxo-2H-pyrido[3,2-b][1,4]oxazin-6-yl)-5-fluoro-N2-[6-((2R)-2-(fluoromethyl)morpholino)pyridin-3-yl]-2,4-pyrimidinediamine], the IC50 is under 0.1 µM.

With `O=C1COc2ccc(Nc3nc(Nc4ccc(N5CCOCC5)nc4)ncc3F)nc2N1` [Compound 5, N4-(3,4-dihydro-3-oxo-2H-pyrido[3,2-b][1,4]oxazin-6-yl)-5-fluoro-N2-[6-morpholinopyridin-3-yl]-2,4-pyrimidinediamine], the IC50 fell in the range of 0.1 to 0.5 µM.

With `CCN[C@@H]1CCN(c2ccc(Nc3ncc(F)c(Nc4ccc5c(n4)NC(=O)C(C)(C)O5)n3)cn2)C1` [Compound 68, N4-(2,2-dimethyl-3,4-dihydro-3-oxo-2H-pyrido[3,2-b][1,4]oxazin-6-yl)-5-fluoro-N2-[6-((3R)-3-(ethylamino)pyyriolidin-1-yl)pyridin-3-yl]-2,4-pyrimidinediamine], the IC50 lay within 0.1 to 0.5 µM.

Still in this assay, the particulars now being: Mast cell, anti-IgG stimulation, activity of tryptase released upon degranulation.
Take `CC1(C)Oc2ccc(Nc3nc(Nc4ccc(N5CCOCC5)cc4)ncc3F)nc2N(COP(=O)(O)O)C1=O` [Compound 2, N4-(2,2-dimethyl-3,4-dihydro-4-[(dihydrogenphosphonoxy)methyl]-3-oxo-2H-pyrido[3,2-b][1,4]oxazin-6-yl)-5-fluoro-N2-(4-morpholinophenyl)-2,4-pyrimidinediamine]: the IC50 is 1 to 100 µM.

Staying with this assay, now noted: anti-IgG stimulation, activity of tryptase released upon degranulation.
`CC1(C)CN(c2ccc(Nc3ncc(F)c(Nc4ccc5c(n4)N(COP(=O)(O)O)C(=O)CO5)n3)cc2)CCO1` [Compound 129, N4-(3,4-dihydro-4-[(dihydrogenphosphonoxy)methyl]-3-oxo-2H-pyrido[3,2-b][1,4]oxazin-6-yl)-5-fluoro-N2-[4-(2,2-dimethylmorpholino)phenyl]-2,4-pyrimidinediamine disodium salt]: the concentration for half-maximal inhibition (IC50) lay within 1 to 100 µM.

With `CC1(C)Oc2ccc(Nc3nc(Nc4ccc(N5CCOCC5)nc4)ncc3F)nc2NC1=O` [Compound 140, N4-(2,2-dimethyl-3,4-dihydro-3-oxo-2H-pyrido[3,2-b][1,4]oxazin-6-yl)-5-fluoro-N2-[6-morpholinopyridin-3-yl]-2,4-pyrimidinediamine hydrochloric acid salt], the IC50 is 0.5 to 1 µM.

In the case of `C[C@H]1COCCN1c1ccc(Nc2ncc(F)c(Nc3ccc4c(n3)N(COP(=O)(O)O)C(=O)C(C)(C)O4)n2)cn1` [Compound 97, N4-(2,2-dimethyl-3,4-dihydro-4-[(dihydrogenphosphonoxy)methyl]-3-oxo-2H-pyrido[3,2-b][1,4]oxazin-6-yl)-5-fluoro-N2-[6-((3S)-3-methylmorpholino)pyridin-3-yl]-2,4-pyrimidinediamine disodium salt], the IC50 lay within 1 to 100 µM.

Regarding `O=C1COc2ccc(Nc3nc(Nc4ccc(N5CCOCC5)cc4)ncc3F)nc2N1COP(=O)(O)O` [Compound 114, N4-(3,4-dihydro-4-[(dihydrogenphosphonoxy)methyl]-3-oxo-2H-pyrido[3,2-b][1,4]oxazin-6-yl)-5-fluoro-N2-(4-morpholinophenyl)-2,4-pyrimidinediamine disodium salt], the IC50 lay within 1 to 100 µM.
